Test results from US20040185499A1, “Method of epitope scanning using fluorescence polarization” (priority 2003, published 2004).
Where no end group is shown, it is not given here. The star is where a group is joined. 6FAM = O=C1OC2(c3ccc(O)cc3Oc3cc(O)ccc32)c2cc(C(=O)*)ccc21

Test system: antibodies to MPB70 in M. bovis positive bovine serum
Type: binding
Details: pH 7.5

Sequence | increase in fluorescence polarization with M. bovis positive bovine serum sample
AASNNPELTTLTAAL (6FAM-AASNNPELTTLTAAL; listed as Mycobacterium bovis) [Peptide 19] | substantial increase in fluorescence polarization
ASNNPELTTLTAALS (6FAM-ASNNPELTTLTAALS; listed as Mycobacterium bovis) [Peptide 20] | substantial increase in fluorescence polarization
AVAASNNPELTTLTA (6FAM-AVAASNNPELTTLTA; listed as Mycobacterium bovis) [Peptide 17] | substantial increase in fluorescence polarization
NNPELTTLTAALSGQ (6FAM-NNPELTTLTAALSGQ; listed as Mycobacterium bovis) [Peptide 22] | substantial increase in fluorescence polarization
SNNPELTTLTAALSG (6FAM-SNNPELTTLTAALSG; listed as Mycobacterium bovis) [Peptide 21] | substantial increase in fluorescence polarization
VAASNNPELTTLTAA (6FAM-VAASNNPELTTLTAA; listed as Mycobacterium bovis) [Peptide 18] | substantial increase in fluorescence polarization
VAVAASNNPELTTLT (6FAM-VAVAASNNPELTTLT; listed as Mycobacterium bovis) [Peptide 16] | substantial increase in fluorescence polarization
